Assay results taken from patent US7271274B2, “Phenolic antioxidants for the treatment of disorders including arthritis, asthma and coronary artery disease” (AhteroGenics, Inc., priority 2004, dated 2007).

Tests used:
[1] = tested on: murine model of allergic pulmonary inflammation; settings: cited from earlier work
[2] = tested on: LDL receptor-deficient rabbits; settings: cited from earlier work
VCAM-1 [3] = assay: In Vitro VCAM-1 Assay - Method 2 (19 h predosing, 4 h TNFα stimulation, surface VCAM-1); format: cell-based; settings: Homo sapiens; HAEC or HPAEC, predosed 19 hours, TNFα 1.5 ng/ml 4 hours
Procedure: Cultured primary human aortic (HAEC) or pulmonary artery (HPAEC) endothelial cells are obtained from BioWhittaker (formerly Clonetics), and are used below passage 9. Cells are seeded in 96-well plates such that they will reach ˜95% confluency by the following day (i.e.10,000 cells/well). Compounds are reconstituted in DMSO (100%) and sonicated to ensure maximum dissolution. Dilutions are then made in DMSO to 500× of final concentrations. These stocks are then diluted 500× into cell culture media (EGM-2 Mv, BioWhittaker) and placed overnight in tissue culture incubator (37° C., 5% CO2) to allow maximum dissolution).
Media is removed from the cells and replaced with the prewarmed dosing media. Cells are predosed in this manner for 19 hours at 37° C., 5% CO2. Remove media again from the cells and replace with prepared dosing media containing TNFα (1.5 ng/ml). Allow stimulation to continue for 4 hours at 37° C., 5% CO2. Media is removed and saved for evaluation of secreted factors as needed. Cells are used for quantitating surface VCAM-1, followed by Hoescht nuclear stain for cell number to determine toxicity. Assay for surface VCAM-1 continues as described in Method 1. IC50's of tested compounds are tabulated in Biological Table 1.

Balb/C mice = assay: In vivo asthma model (ovalbumin-sensitized mice, BAL fluid eosinophilia); settings: 25 mg/kg, sc, qd; BALF eosinophilia vs vehicle control
Procedure: Balb/C mice (6–8 weeks old) were sensitized to ovalbumin (ova) (8 ug ova absorbed in 3.3 mg Alum inject) on days 0 and 5. On day 12, the mice were aerosol challenged with 0.5% ovalbumin dissolved in sterile saline for 1 hr in the AM, and then again in the PM (at least 4 hr apart). On day 14, the mice were anesthetized with ketamine/xylazine/acepromazine cocktail, exsanguinated, and then euthanized. Following blood collection, bronchoaveolar lavage (BAL) was performed on each animal. Total cell counts were conducted on the lavage fluid, which was subsequently diluted with cell media 1:1. Slides of the lavage fluid were made by spinning the samples with a cytospin centrifuge and then air drying. Cell differentials of the lavage fluid were determined by microscopic evaluation of hematoxylin and eosin-stained slides. Data are expressed as the % inhibition of eosinophilia in the BAL fluid compared to the vehicle control. […] The formulations used contained various mixtures of the following excipients (propylene glycol, polyethylene glycol, Tween 80, Glycofurol).

VCAM-1 [4] = assay: In Vitro VCAM-1 Assay - Method 1 (TNF-α stimulated endothelial cells, surface VCAM-1 ELISA); format: cell-based; settings: Homo sapiens, Endothelial cell; HAEC or HPAEC, TNF-α 1 ng/ml with compound approximately 16 hours
Procedure: Cell Culture and compound dosing: Cultured primary human aortic (HAEC) or pulmonary (HPAEC) endothelial cells were obtained from Clonetics, Inc., and were used below passage 9. Cells were seeded in 96 well plates such that they would reach 90–95% confluency by the following day. On the following day the cells were stimulated with TNF-α (1 ng/ml) in the presence or absence of compounds dissolved in DMSO such that the final concentration of DMSO is 0.25% or less. To establish a dose curve for each compound, four concentrations in 2- to 5-fold increments were used. Cells were exposed to TNF-α and compounds for approximately 16 hours. The next day the cells were examined under microscope to score for visual signs of toxicity or cell stress.
Following 16 hr exposure to TNF-α and compound the media was discarded and the cells were washed once with Hanks Balanced Salt Solution (HBSS)/Phosphate buffered saline (PBS) (1:1). Primary antibodies against VCAM-1 (0.25 μg/ml in HBSS/PBS+5% FBS) were added and incubated for 30–60 minutes at 37° C. Cells were washed with HBSS/PBS three times, and secondary antibody Horse Radish Peroxidase (HRP)-conjugated goat anti-mouse IgG (1:500 in HBSS/PBS+5% FBS) were added and incubated for 30 minutes at 37° C. Cells were washed with HBSS/PBS four time and TMB substrate were added and incubated at room temperature in the dark until there was adequate development of blue color. The length of time of incubation was typically 5–15 minutes. 2N sulfuric acid was added to stop the color development and the data was collected by reading the absorbance on a BioRad ELISA plate reader at OD 450 nm. The results are expressed as IC50 values (the concentration (micromolar) of compound required to inhibit 50% of the maximal response of the control sample stimulated by TNF-α only). IC50's of tested compounds are tabulated in Biological Table 1.

TNF-α = assay: Cytokine screening: LPS-induced secretion of TNF-α from hPBMCs; format: cell-based; settings: Homo sapiens
Procedure: (§1) Fresh cryopreserved hPBMCs (1 million cells/ml; Clonetics, Inc.) were pretreated with test compound for 1 hr in lymphocyte growth media-3 (Clonetics, Inc.), followed by stimulation with 1 μg/ml of LPS for another 2 hr in the presence of test compound. Conditioned media was collected and assayed for secreted TNF-α, IL-1β and […] using commercially available human ELISA kits (R&D Systems). Samples were measured in duplicate and data presented as mean ± standard deviation. Each experiment was repeated at least three times with similar results.

Female Lewis rats = assay: In vivo rheumatoid arthritis model (Freund's complete adjuvant, paw swelling); settings: paw swelling vs vehicle control
Procedure: Female Lewis rats (200–250 g) were sensitized with Freund's complete adjuvant (100 ug) by subcutaneous injection at the base of the tail. Paw swelling was monitored by measuring the volume of each foot with a plethysmometer on days 5, 8, 12–15. Animals were euthanized on day 15. […] Data is expressed as the % inhibition of paw swelling (AUC of the paw volume vs time curve d5–15) compared with vehicle control. The formulations used contained various mixtures of the following excipients (propylene glycol, polyethylene glycol, Tween 80, Glycofurol).

IL-1β = assay: Cytokine screening: LPS-induced secretion of IL-1β from hPBMCs; format: cell-based; settings: Homo sapiens, Biological Table 2, LPS 1 μg/ml, mean ± standard deviation
Procedure: as §1

IL-6 = assay: Cytokine screening: LPS-induced secretion of IL-6 from hPBMCs; format: cell-based; settings: Homo sapiens, Biological Table 2, LPS 1 μg/ml, mean ± standard deviation
Procedure: as §1

Male BALB/c mice = assay: mBSA-induced delayed-type hypersensitivity (DTH) model of inflammation in mice; format: in vivo; settings: vehicle swelling = 100%
Procedure: The methylated bovine serum albumin (mBSA)-induced delayed-type hypersensitivity (DTH) model of mice is generally used for screening compounds with anti-inflammatory effects (Sarnstrand et al., Pharmacol. Exp. Ther. 1999, 288, 1174–84). Compounds of Ex-1 and Ex-2 were tested in this model, dosed subcutaneously at 24 and 2 hrs prior to challenge at doses of 50 and 25 mg/kg with cyclosporin A (CSA) as positive control.
Male BALB/c mice (20–25 g) were sensitized on day 0 by intradermal abdominal injection of 100 μL of a 1:1 emulsion of mBSA (5 mg/ml) and Freund's complete adjuvant. On day 7, the mice were challenged by injecting 25 μL of mBSA (5 mg/ml) into the footpad of the right hindpaw and the left hindpaw was injected with saline. Mice were treated by s.c. injection of test compound 24 hrs and 2 hrs before the challenge. Twenty four hours after challenge mice were sacrificed by CO2 inhalation. The feet were removed by cutting just above the heel with scissors, and the mass of the saline-injected foot was subtracted from the mass of the mBSA injected foot to determine the amount of swelling that occurred in the latter. Inhibition of swelling for test compound group was calculated, taking the swelling of the vehicle-treated group as 100%. The results from the DTH model are summarized for examples 1 and 2 in Biological Table 4 using cyclosporine A (CSA) as a positive control.

[5] = Biological Table 3, LPS-induced secretion from hPBMN cells, average of at least three determinations
[6] = Biological Table 2, hPBMCs, LPS 1 μg/ml, mean ± standard deviation
[7] = 25 mg/Kg s.c. 24 hrs and 2 hrs before challenge
[8] = 50 mg/Kg s.c. 24 hrs and 2 hrs before challenge

COc1cc(CC(=O)N[C@@H](CC(C)C)c2cc(CCC(=O)O)on2)ccc1NC(=O)Nc1ccccc1C [CP-664511]
airway eosinophil infiltration [1]: inhibited airway eosinophil infiltration

CC(C)(Sc1cc(C(C)(C)C)c(O)c(C(C)(C)C)c1)Sc1cc(C(C)(C)C)c(O)c(C(C)(C)C)c1 [probucol, 4,4′-(isopropylidenedithio) bis(2,6-di-tert-butylphenol)]
progression of atherosclerosis [2]: slow the progression of atherosclerosis

CC(C)(Sc1cc(C(C)(C)C)c(O)c(C(C)(C)C)c1)Sc1cc(C(C)(C)C)c(OCCC[C@H](O)CO)c(C(C)(C)C)c1 [Ex-13, 5-{2,6-Di-tert-butyl-4-[1-(3,5-di-tert-butyl-4-hydroxy-phenylsulfanyl)-1-methyl-ethylsulfanyl]-phenoxy}-pentane-1,2(S)-diol]
IC50 (VCAM-1 [3]): 11 µM | Inhibition of BAL fluid eosinophilia (asthma model) (Balb/C mice): 60 percentage | melting point: 68 to 71 °C

CC(C)(Sc1cc(C(C)(C)C)c(O)c(C(C)(C)C)c1)Sc1cc(C(C)(C)C)c(OCC[C@H](O)CO)c(C(C)(C)C)c1 [Ex-10, 4-{2,6-Di-tert-butyl-4-[1-(3,5-di-tert-butyl-4-hydroxy-phenylsulfanyl)-1-methyl-ethylsulfanyl]-phenoxy}-butane-1,2(S)-diol]
IC50 (VCAM-1 [4]): 40 µM | IC50 (VCAM-1 [3]): 8 µM | IC50 (TNF-α; [5]): 3.8 µM | Inhibition of BAL fluid eosinophilia (asthma model) (Balb/C mice): 78 percentage | Rheumatoid arthritis model (25 mg/kg, sc, qd, inhibition of paw swelling in percentage) (Female Lewis rats): 85 percentage | melting point: 110 to 112 °C

COC[C@@H](O)[C@H](O)COc1c(C(C)(C)C)cc(SC(C)(C)Sc2cc(C(C)(C)C)c(O)c(C(C)(C)C)c2)cc1C(C)(C)C [Ex-16, 1-{2,6-Di-tert-butyl-4-[1-(3,5-di-tert-butyl-4-hydroxyphenylsulfanyl)-1-methylethylsulfanyl]phenoxy}-4-methoxybutane-2(R),3(R)-diol]
Inhibition of BAL fluid eosinophilia (asthma model) (Balb/C mice): 44 percentage | Rheumatoid arthritis model (25 mg/kg, sc, qd, inhibition of paw swelling in percentage) (Female Lewis rats): 63 percentage | melting point: 68 to 70 °C

CC(C)(Sc1cc(C(C)(C)C)c(O)c(C(C)(C)C)c1)Sc1cc(C(C)(C)C)c(OCC[C@@H](O)CO)c(C(C)(C)C)c1 [Ex-11, 4-{2,6-Di-tert-butyl-4-[1-(3,5-di-tert-butyl-4-hydroxy-phenylsulfanyl)-1-methyl-ethylsulfanyl]-phenoxy}-butane-1,2(R)-diol]
IC50 (VCAM-1 [4]): > 50 µM | IC50 (VCAM-1 [3]): 7 µM | IC50 (TNF-α; [5]): 4.4 µM | Inhibition of BAL fluid eosinophilia (asthma model) (Balb/C mice): 95 percentage | Rheumatoid arthritis model (25 mg/kg, sc, qd, inhibition of paw swelling in percentage) (Female Lewis rats): 85 percentage

CC(C)(Sc1cc(C(C)(C)C)c(O)c(C(C)(C)C)c1)Sc1cc(C(C)(C)C)c(OC[C@H](O)[C@@H](O)CO)c(C(C)(C)C)c1 [Ex-1, 4-{2,6-Di-tert-butyl-4-[1-(3,5-di-tert-butyl-4-hydroxyphenylsulfanyl)-1-methylethyl-sulfanyl]phenoxy}butane-1,2(S),3(S)-triol]
IC50 (VCAM-1 [4]): 7 µM | IC50 (VCAM-1 [3]): 9 µM | IC50 (TNF-α; [5]): 5.1 µM | IC50 (TNF-α; [6]): 4 ± 1 µM | IC50 (IL-1β): 7.7 ± 0.6 µM | IC50 (IL-6): 1.7 ± 0.9 µM | Percent Inhibition (of swelling) (Male BALB/c mice; [7]): +40% | Percent Inhibition (of swelling) (Male BALB/c mice; [8]): +65% | Inhibition of BAL fluid eosinophilia (asthma model) (Balb/C mice): 87 percentage | melting point: 69 to 71 °C

CC(C)(Sc1cc(C(C)(C)C)c(O)c(C(C)(C)C)c1)Sc1cc(C(C)(C)C)c(OCC(CO)CO)c(C(C)(C)C)c1 [Ex-18, 2-{2,6-Di-tert-butyl-4-[1-(3,5-di-tert-butyl-4-hydroxyphenylsulfanyl)-1-methylethyl-sulfanyl]phenoxymethyl}propane-1,3-diol]
IC50 (VCAM-1 [4]): 13 µM | IC50 (VCAM-1 [3]): 6 µM | IC50 (TNF-α; [5]): 4.5 µM | Inhibition of BAL fluid eosinophilia (asthma model) (Balb/C mice): 60 percentage | Rheumatoid arthritis model (25 mg/kg, sc, qd, inhibition of paw swelling in percentage) (Female Lewis rats): 83 percentage

CC(C)(Sc1cc(C(C)(C)C)c(O)c(C(C)(C)C)c1)Sc1cc(C(C)(C)C)c(OC[C@@H](O)[C@H](O)CO)c(C(C)(C)C)c1 [Ex-2, 4-{2,6-Di-tert-butyl-4-[1-(3,5-di-tert-butyl-4-hydroxyphenylsulfanyl)-1-methylethylsulfanyl]-phenoxy}butane-1,2(R),3(R)-triol]
IC50 (VCAM-1 [4]): 5 µM | IC50 (TNF-α; [5]): 1.6 µM | IC50 (TNF-α; [6]): 3.3 ± 0.3 µM | IC50 (IL-1β): 8 µM | IC50 (IL-6): 1.2 ± 0.3 µM | Percent Inhibition (of swelling) (Male BALB/c mice; [7]): +25% | Percent Inhibition (of swelling) (Male BALB/c mice; [8]): +60% | Inhibition of BAL fluid eosinophilia (asthma model) (Balb/C mice): 65 percentage | Rheumatoid arthritis model (25 mg/kg, sc, qd, inhibition of paw swelling in percentage) (Female Lewis rats): 75 percentage | melting point: 69 to 71 °C

CC(C)(Sc1cc(C(C)(C)C)c(O)c(C(C)(C)C)c1)Sc1cc(C(C)(C)C)c(OCCC(O)C(O)CCO)c(C(C)(C)C)c1 (stereo not drawn) [Ex-14, 6-{2,6-Di-tert-butyl-4-[1-(3,5-di-tert-butyl-4-hydroxy-phenylsulfanyl)-1-methyl-ethylsulfanyl]-phenoxy}-hexane-1,3,4-triol]
IC50 (VCAM-1 [4]): 21 µM | IC50 (VCAM-1 [3]): 9.2 µM | Inhibition of BAL fluid eosinophilia (asthma model) (Balb/C mice): 84 percentage | melting point: 75 to 77 °C
